These results are taken from patent US12012386B2, “Olaparib oxalic acid cocrystals and their pharmaceutical use” (NUFORMIX TECHNOLOGIES LIMITED, priority 2020, dated 2024).

Each structure is given as a SMILES string. Converted amounts (≈) assume the structure as drawn. “Also recorded” adds a separate entry of the source.

For series [1] the following is noted: EMA/CHMP/789139/2014; low solubility and low permeability; cited from earlier work.
The conditions of series [2]: pH independent; cited from earlier work.
The nature of series [3]: Solid-state stability study, ambient conditions (6 months). It counts as physicochemical. Conditions: clear glass vial. The protocol:
A second stability study was carried out where 50 mg each of the 2:3 olaparib oxalic acid cocrystal, 1:1 olaparib oxalic acid cocrystal, and 2:1 olaparib oxalic acid cocrystal were separately placed in a clear glass vial which was then stored under ambient conditions for 6 months. After this time, all the cocrystals remained as white solids with no signs of colour change.

Series [4] is described as follows: Solid-state stability study, accelerated conditions (40° C./75% RH, 4 months). It counts as physicochemical. The note with it: for stability to polymorph conversion or hydrate formation on long storage (summary of Tables 4 and 5): 4 months accelerated conditions and 6 months ambient conditions; for Appearance / XRPD analysis: 40° C./75% RH - 4 months, sealed container. On the procedure:
A study was carried out to examine the physical stability of the olaparib oxalic acid cocrystals with respect to solid form conversion or signs of decomposition over time under both ambient and accelerated conditions. 50 mg each of the 2:3 olaparib oxalic acid cocrystal, 1:1 olaparib oxalic acid cocrystal, and 2:1 olaparib oxalic acid cocrystal were separately placed in a sealed container at 40° C. and 75% relative humidity and stored under these conditions for 4 months. After this time, all samples remained as white solids with no signs of deliquescence.

The nature of series [5]: Gravimetric Vapour Sorption (GVS) analysis. It counts as physicochemical. The note with it: for polymorphic form conversion or hydrate formation under raised relative humidity levels: GVS; for moisture reversibly adsorbed (GVS): across the 0-90% relative humidity range at 25° C. under nitrogen; for XRPD analysis post GVS analysis: at both 0% RH and 90% RH. The protocol:
Gravimetric Vapor Isotherm (GVS) Analysis: Sorption isotherms were obtained using a Hiden Isochema moisture sorption analyser (model IGAsorp), controlled by IGAsorp Systems Software V6.50.48. The sample was maintained at a constant temperature (25° C.) by the instrument controls. The humidity was controlled by mixing streams of dry and wet nitrogen, with a total flow of 250 ml·min^−1. The instrument was verified for relative humidity content by measuring three calibrated Rotronic salt solutions (10-50-88%). The weight change of the sample was monitored as a function of humidity by a microbalance (accuracy +/−0.005 mg). A defined amount of sample was placed in a tared mesh stainless steel basket under ambient conditions. The sample was held at 50% RH for ˜60 minutes and then the initial desorption cycle was initiated. A full experimental cycle typically consisted of three scans (desorption, sorption and desorption) at a constant temperature (25° C.) and 10% RH intervals over a 0-90% range (60 minutes for each humidity level). Data analysis was performed in Microsoft Excel. […] XRPD analysis at both 0% RH and 90% RH post GVS analysis confirmed that the cocrystal was unchanged. […]

The nature of series [6]: Dissolution study in simulated intestinal fluid (FaSSIF V2). The series is classed as physicochemical. The note with it: from four minutes onwards; 50 ml FaSSIF V2, pH 6.5, 37° C.; FIG. 12. From the text:
For BCS class IV drugs, such as olaparib, where both solubility and permeability are limited, the rate of dissolution of the drug form used can be the controlling factor in the overall absorption and thus the bioavailability of a drug. This becomes even more influential as the dose of a drug increases. Given the high dose of olaparib needed in its current marketed indications it is likely that a high dose may be needed for use in alternative conditions, thus finding a crystalline form of olaparib that has a high dissolution rate is important. A study was, therefore, carried out to examine the rate of dissolution of the 2:3 olaparib oxalic acid cocrystal, 1:1 olaparib oxalic acid cocrystal, and 2:1 olaparib oxalic acid compared with the 1:1 olaparib urea cocrystal of CN 105753789 and the pure crystalline olaparib form A. The dissolution study was carried out using 50 ml simulated intestinal fluid (FaSSIF V2) at pH 6.5 (37° C.) using a quantity of each olaparib form equivalent to 25 mg olaparib. […] Detection and quantification of olaparib was performed by in-situ UV-spectroscopy using a fibre-optic probe, allowing instantaneous data collection from the point of sample introduction. UV absorption data was converted to mg/ml (±0.2 mg/ml) using a previously determined pH dependent molar extinction coefficients to quantitate the amount of dissolved drug.

In the case of `O=C(c1cc(Cc2n[nH]c(=O)c3ccccc23)ccc1F)N1CCN(C(=O)C2CC2)CC1` [olaparib, 4-[(3-{[4-(cyclopropylcarbonyl)piperazin-1-yl]carbonyl}-4-fluorophenyl)methyl]phthalazin-1(2H)-one], the BCS class result in series [1] is on record as “class IV; also recorded: class 4”.

Regarding `O=C(c1cc(Cc2n[nH]c(=O)c3ccccc23)ccc1F)N1CCN(C(=O)C2CC2)CC1` [polymorph A], in series [2], the aqueous solubility was roughly 100 µg/mL (≈ 230 µM).

Consider `O=C(O)C(=O)O.O=C(c1cc(Cc2n[nH]c(=O)c3ccccc23)ccc1F)N1CCN(C(=O)C2CC2)CC1` [1:1 olaparib oxalic acid cocrystal], for which, in series [3], the Appearance result is listed as “No change” and the XRPD analysis entry is on record as “No change”. Further, in series [4], the “stability to polymorph conversion or hydrate formation on long storage (summary of Tables 4 and 5)” value (“stability” below) is “stable to polymorph conversion or hydrate formation”; the Appearance result was “No change”; the XRPD analysis entry is given as “No change”.

As to `O=C(O)C(=O)O.O=C(c1cc(Cc2n[nH]c(=O)c3ccccc23)ccc1F)N1CCN(C(=O)C2CC2)CC1.O=C(c1cc(Cc2n[nH]c(=O)c3ccccc23)ccc1F)N1CCN(C(=O)C2CC2)CC1` [2:1 olaparib oxalic acid cocrystal], in series [3], the Appearance result is reported as “No change” and the XRPD analysis entry was “No change”. In series [4], the “stability” value was “stable to polymorph conversion or hydrate formation”; the Appearance result is “No change”; the XRPD analysis result is listed as “No change”. Besides, the “polymorphic form conversion or hydrate formation under raised relative humidity levels” value in series [5] (0-90% RH, 25° C.) is on record as “does not show any polymorphic form conversion or hydrate formation”. Also, in series [5], the “moisture reversibly adsorbed (GVS)” value is 0.59 % w/w and the “XRPD analysis post GVS analysis” value is recorded as “unchanged”.

Regarding `NC(N)=O.O=C(c1cc(Cc2n[nH]c(=O)c3ccccc23)ccc1F)N1CCN(C(=O)C2CC2)CC1` [1:1 olaparib urea cocrystal], the “level of dissolution compared with pure crystalline olaparib form A” value in series [6] is listed as “only achieves the same level of dissolution as pure crystalline olaparib form A”.

On to `O=C(O)C(=O)O.O=C(O)C(=O)O.O=C(O)C(=O)O.O=C(c1cc(Cc2n[nH]c(=O)c3ccccc23)ccc1F)N1CCN(C(=O)C2CC2)CC1.O=C(c1cc(Cc2n[nH]c(=O)c3ccccc23)ccc1F)N1CCN(C(=O)C2CC2)CC1` [2:3 olaparib oxalic acid cocrystal], for which, in series [4], the “stability” value is listed as “stable to polymorph conversion or hydrate formation”; the Appearance entry is “No change”; the XRPD analysis entry is “No change”. Also, in series [5] (0-90% RH, 25° C.), the hygroscopicity entry is given as “not hygroscopic” and the “polymorphic form conversion or hydrate formation under raised relative humidity levels” value is “does not show any polymorphic form conversion or hydrate formation”. In addition, in series [5], the “moisture reversibly adsorbed (GVS)” value stood at 0.23 % w/w and the “XRPD analysis post GVS analysis” value is recorded as “unchanged”.

As a reminder, the aqueous solubility is how much of the substance goes into solution per volume.
